Source: PubChem BioAssay (NCI)
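Values below derive from 48-hour exposures of cells grown in 96-well plates, with endpoints linearly interpolated between the two concentrations bracketing the appropriate inhibition level. The concentration for 50% growth inhibition is given as GI50. At the TGI there is no net growth.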

What was measured:
Assay in all cases: NCI tumour cell line growth inhibition, 48 h
SK-MEL-5 melanoma = tested on: SK-MEL-5 melanoma
M14 melanoma = tested on: M14 melanoma
OVCAR-5 ovarian = tested on: OVCAR-5 ovarian
HCT-15 colon = tested on: HCT-15 colon
SW-620 colon = tested on: SW-620 colon
HCC-2998 colon = tested on: HCC-2998 colon
LOX IMVI melanoma = tested on: LOX IMVI melanoma
MOLT-4 leukemia = tested on: MOLT-4 leukemia
HT29 colon = tested on: HT29 colon
SF-539 CNS = tested on: SF-539 CNS

Compound	TGI (SK-MEL-5 melanoma)	TGI (M14 melanoma)	TGI (OVCAR-5 ovarian)	TGI (HCT-15 colon)	TGI (SW-620 colon)	TGI (HCC-2998 colon)	TGI (LOX IMVI melanoma)	TGI (MOLT-4 leukemia)	TGI (HT29 colon)	TGI (SF-539 CNS)	GI50 (SW-620 colon)	GI50 (HCC-2998 colon)	GI50 (MOLT-4 leukemia)	GI50 (HT29 colon)	GI50 (SK-MEL-5 melanoma)
CC(C)=CCC[C@@H](C)C1=C(O)C(Nc2ccccc2F)=C(C)C(=O)C1=O	42.3 µM	> 57.6 µM	> 100 µM	> 70.2 µM	> 100 µM	> 100 µM	> 100 µM	> 100 µM	> 100 µM	–	–	–	–	–	–
[N-]=[N+]=NC(c1cn(C2CC(O)C(CO)O2)c(=O)[nH]c1=O)C(I)I (stereo unspecified)	> 100 µM	> 100 µM	> 100 µM	–	> 100 µM	> 100 µM	> 100 µM	> 100 µM	> 100 µM	> 100 µM	–	–	–	–	–
CCC(=O)n1c(=O)n(-c2ccc([N+](=O)[O-])cc2)c(=O)n1C(=O)CC	> 100 µM	> 100 µM	> 100 µM	> 100 µM	> 100 µM	> 100 µM	> 100 µM	> 100 µM	> 100 µM	–	–	–	–	–	–
CC(=O)O[C@@H]1CC2[C@@H](CCC3Cc4nc5c(nc4C[C@@]32C)CC2CC[C@@H]3C(CC[C@@]4(C)C3CC[C@@H]4C(C)CCCC(C)C)[C@@]2(C)C5)C2C[C@@H]3OC4(CCC(C)CO4)C(C)[C@@H]3[C@]21C (stereo partly specified)	> 100 µM	> 100 µM	> 100 µM	> 100 µM	> 100 µM	> 100 µM	–	> 100 µM	> 100 µM	> 100 µM	–	–	–	–	–
CCOc1ccc(-n2c(=O)n3c(Nc4ccc(Cl)cc4)nc4c(c(=O)n(C)c(=O)n4C)n3c2=O)cc1	36 µM	–	> 100 µM	42 µM	99.2 µM	34.4 µM	44.8 µM	69.9 µM	> 100 µM	> 100 µM	–	–	–	–	–
N/C(=N\N=C/c1cc(Cl)cc(Cl)c1O)NO	12.5 µM	–	33.5 µM	17.8 µM	38.5 µM	10.1 µM	6.66 µM	> 23 µM	> 62.7 µM	8.34 µM	–	–	–	–	–
O=C(Cc1ccccc1)NN1C(=O)C(Cl)C1c1ccccc1 (stereo unspecified)	> 100 µM	> 100 µM	> 100 µM	> 100 µM	> 100 µM	> 100 µM	–	81.8 µM	> 100 µM	–	–	–	–	–	–
CC[S+](C)c1ccc(-c2c3nc(c(-c4ccc([S+](C)CC)cc4)c4ccc([nH]4)c(-c4ccc([S+](C)CC)cc4)c4nc(c(-c5ccc([S+](C)CC)cc5)c5ccc2[nH]5)C=C4)C=C3)cc1 (stereo unspecified)	> 100 µM	> 100 µM	65.8 µM	> 100 µM	> 100 µM	–	23.3 µM	67.1 µM	> 100 µM	> 100 µM	–	–	–	–	–
COC(=O)C[C@](O)(CCC(C)(C)O)C(=O)O[C@@H]1C(OC)=C[C@]23CCCN2CCc2cc4c(cc2[C@H]13)OCO4	0.202 µM	–	1.08 µM	2.07 µM	–	0.0855 µM	0.426 µM	> 100 µM	1.06 µM	0.102 µM	–	–	–	–	–
COC(=O)Nc1nc2ccc(NS(=O)(=O)c3ccc(F)cc3)cc2[nH]1	> 100 µM	> 100 µM	> 100 µM	> 100 µM	> 100 µM	–	> 100 µM	36.5 µM	37.4 µM	52.9 µM	–	–	–	–	–
CC(=N\N=C\c1ccccn1)/C(C)=N/N=C/c1ccccn1	> 100 µM	> 100 µM	> 100 µM	> 100 µM	> 100 µM	> 100 µM	> 100 µM	–	> 100 µM	> 100 µM	–	–	–	–	–
O=C(/C=C\c1ccc(OCCCCCC[P+](c2ccccc2)(c2ccccc2)c2ccccc2)cc1)c1ccc2c(c1)OCCO2	–	–	–	–	2.55 µM	2.2 µM	–	8.57 µM	3.24 µM	–	1.11 µM	1.01 µM	2.32 µM	0.912 µM	–
CCC(C)N1CN(c2ccccc2)C2(CCN(CCCC(=O)c3ccc(F)cc3)CC2)C1=O (stereo unspecified)	9.61 µM	27.4 µM	8.12 µM	17.9 µM	16 µM	–	10.8 µM	23.2 µM	2.35 µM	21 µM	–	–	–	–	–
CN(C)Cc1cc(C(=O)/C=C/c2c(F)cccc2Cl)cc(CN(C)C)c1O	29.2 µM	30 µM	36.2 µM	19.1 µM	31.3 µM	27 µM	18.5 µM	66.1 µM	23.7 µM	–	–	–	–	–	–
O=C1O[C@H](COC(=O)c2ccccc2)[C@@H](OC(=O)c2ccccc2)C=C1OC(=O)c1ccccc1	36.2 µM	31.9 µM	40.9 µM	39.6 µM	35.9 µM	> 100 µM	39.3 µM	56 µM	–	32.5 µM	–	–	–	–	–
COc1ccc(C2c3c(-c4ccccc4)nn(-c4ccccc4)c3Oc3ncn(N)c(=N)c32)cc1OC (stereo unspecified)	–	4.17 µM	13.5 µM	4.06 µM	> 25 µM	2.76 µM	–	> 34.4 µM	4.32 µM	2.6 µM	–	–	–	–	–
O=S(=O)(Nc1nc(-c2cc(O)c(O)c(O)c2)cs1)c1ccc(Cl)cc1Cl	34.2 µM	50.6 µM	33.4 µM	33 µM	37.5 µM	–	33.6 µM	52.7 µM	51.2 µM	71.5 µM	–	–	–	–	–
O=C1CSC(c2c(O)ccc3ccccc23)N1n1c(=S)[nH]nc(/C=C/c2c(O)ccc3ccccc23)c1=O (stereo unspecified)	–	3.32 µM	38.1 µM	23.2 µM	52.1 µM	22 µM	17.5 µM	> 100 µM	36.6 µM	–	–	–	–	–	–
O=c1cc(-c2ccc[nH]2)[nH]c2cc3c(cc12)OCO3	> 100 µM	> 100 µM	–	> 100 µM	> 100 µM	86.5 µM	> 100 µM	> 100 µM	> 100 µM	84.6 µM	–	–	–	–	7.74 µM
CCCCCCCCCCOC1C(C(C)OCCCN(C)C)OC2OC3(CCCCC3)OC21 (stereo unspecified)	29.5 µM	10.2 µM	25.2 µM	17.5 µM	27.1 µM	29.3 µM	10.7 µM	30.6 µM	11 µM	–	–	–	–	–	–
